The values that follow come from patent US9873709B2 (priority 2013, dated 2018).

The test system of the assay is JAK1-dependent STAT6 phosphorylation downstream of IL-13 stimulation in TF-1 human erythroleukemia cells. As to the kind of experiment: cells. The following applies: TF-1, read-out: IL-13-pSTAT6 IC50.
`N#CCCN1CCN(C(=O)c2ccc(Nc3nc4c(C5=CCN(C(=O)CCC(F)(F)F)CC5)cccn4n3)cc2)CC1` [Example 2-142, 3-[4-[4-[[8-[1-(4,4,4-trifluorobutanoyl)-3,6-dihydro-2H-pyridin-4-yl]-[1,2,4]triazolo[1,5-a]pyridin-2-yl]amino]benzoyl]piperazin-1-yl]propanenitrile]: the IC50 came to 0.0066 µM.
Turning to `Cc1ccc(C2CCCN2C(=O)c2ccc(Nc3nc4c(C5=CCN(C(=O)CCC(F)(F)F)CC5)cccn4n3)cc2)nc1` (stereo not shown) [Example 2-143, 4,4,4-trifluoro-1-[4-[2-[4-[2-(5-methyl-2-pyridyl)pyrrolidine-1-carbonyl]anilino]-[1,2,4]triazolo[1,5-a]pyridin-8-yl]-3,6-dihydro-2H-pyridin-1-yl]butan-1-one], the IC50 came out at 0.0079 µM.
The figure for `CN1CCN(C(=O)c2ccc(Nc3nc4c(C5=CCN(C(=O)CCC(F)(F)F)CC5)cccn4n3)cc2)CC(CO)C1` (stereo not shown) [Example 2-144, 4,4,4-trifIuoro-1-[4-[2-[4-[6-(hydroxymethyl)-4-methyl-1,4-diazepane-1-carbonyl]anilino]-[1,2,4]triazolo[1,5-a]pyridin-8-yl]-3,6-dihydro-2H-pyridin-1-yl]butan-1-one] is 0.187 µM; for `O=C(CCC(F)(F)F)N1CC=C(c2cccn3nc(Nc4ccc(C(=O)N5CCCC5c5cccnc5)cc4)nc23)CC1` (stereo not shown) [Example 2-145, 4,4,4-trifluoro-1-[4-[2-[4-[2-(3-pyridyl)pyrrolidine-1-carbonyl]anilino]-[1,2,4]triazolo[1,5-a]pyridin-8-yl]-3,6-dihydro-2H-pyridin-1-yl]butan-1-one] it is 0.0064 µM; for `O=C(CCC(F)(F)F)N1CC=C(c2cccn3nc(Nc4ccc(C(=O)N5Cc6cccnc6C5)cc4)nc23)CC1` [Example 2-146, 1-[4-[2-[4-(5,7-dihydropyrrolo[3,4-b]pyridine-6-carbonyl)anilino]-[1,2,4]triazolo[1,5-a]pyridin-8-yl]-3,6-dihydro-2H-pyridin-1-yl]-4,4,4-trifluoro-butan-1-one] it is 0.0065 µM.
With `CC1CCN(CCNC(=O)c2ccc(Nc3nc4c(C5=CCN(C(=O)CCC(F)(F)F)CC5)cccn4n3)cc2)CC1` [Example 2-147, N-[2-(4-methyl-1-piperidyl)ethyl]-4-[[8-[1-(4,4,4-trifluorobutanoyl)-3,6-dihydro-2H-pyridin-4-yl]-[1,2,4]triazolo[1,5-a]pyridin-2-yl]amino]benzamide], the IC50 is 0.0066 µM.
With `CN1CCC(C2CCCCN2C(=O)c2ccc(Nc3nc4c(C5=CCN(C(=O)CCC(F)(F)F)CC5)cccn4n3)cc2)CC1` (stereo not shown) [Example 2-149, 4,4,4-trifluoro-1-[4-[2-[4-[2-(1-methyl-4-piperidyl)piperidine-1-carbonyl]anilino]-[1,2,4]triazolo[1,5-a]pyridin-8-yl]-3,6-dihydro-2H-pyridin-1-yl]butane-1-one] the figure was 0.0107 µM.
For the compound `CN1CCC(N(C(=O)c2ccc(Nc3nc4c(C5=CCN(C(=O)CCC(F)(F)F)CC5)cccn4n3)cc2)C2CC2)CC1` [Example 2-150, N-cyclopropyl-N-(1-methyl-4-piperidyl)-4-[[8-[1-(4,4,4-trifluorobutanoyl)-3,6-dihydro-2H-pyridin-4-yl]-[1,2,4]triazolo[1,5-a]pyridin-2-yl]amino]benzamide], the half-inhibitory concentration (IC50) was determined as 0.0083 µM.
Regarding `O=C(CCC(F)(F)F)N1CC=C(c2cccn3nc(Nc4ccc(C(=O)N5CCN6CCCCC6C5)cc4)nc23)CC1` (stereo not shown) [Example 2-151, 1-[4-[2-[4-(1,3,4,6,7,8,9,9a-octahydropyrido[1,2-a]pyrazine-2-carbonyl)anilino]-[1,2,4]triazolo[1,5-a]pyridin-8-yl]-3,6-dihydro-2H-pyridin-1-yl]-4,4,4-trifluoro-butan-1-one], the IC50 was 0.0057 µM.
The figure for `CN(CCc1ccccn1)C(=O)c1ccc(Nc2nc3c(C4=CCN(C(=O)CCC(F)(F)F)CC4)cccn3n2)cc1` [Example 2-152, N-methyl-N-[2-(2-pyridyl)ethyl]-4-[[8-[1-(4,4,4-trifluorobutanoyl)-3,6-dihydro-2H-pyridin-4-yl]-[1,2,4]triazolo[1,5-a]pyridin-2-yl]amino]benzamide] is 0.0093 µM.
With `O=C(CCC(F)(F)F)N1CC=C(c2cccn3nc(Nc4ccc(C(=O)N5CCN(CCO)CC5)cc4)nc23)CC1` [Example 2-153, 4,4,4-trifluoro-1-[4-[2-[4-[4-(2-hydroxyethyl)piperazine-1-carbonyl]anilino]-[1,2,4]triazolo[1,5-a]pyridin-8-yl]-3,6-dihydro-2H-pyridin-1-yl]butan-1-one], the concentration for half-maximal inhibition (IC50) was found to be 0.0286 µM.
The figure for `O=C(CCC(F)(F)F)N1CC=C(c2cccn3nc(Nc4ccc(C(=O)N5CCC(c6cc7cccnc7[nH]6)CC5)cc4)nc23)CC1` [Example 2-155, 4,4,4-trifluoro-1-[4-[2-[4-[4-(1H-pyrrolo[2,3-b]pyridin-2-yl)piperidine-1-carbonyl]anilino]-[1,2,4]triazolo[1,5-a]pyridin-8-yl]-3,6-dihydro-2H-pyridin-1-yl]butan-1-one] is 0.132 µM; for `O=C(CCC(F)(F)F)N1CC=C(c2cccn3nc(Nc4ccc(C(=O)N5CCC(c6ccccn6)CC5)cc4)nc23)CC1` [Example 2-156, 4,4,4-trifluoro-1-[4-[2-[4-[4-(2-pyridyl)piperidine-1-carbonyl]anilino]-[1,2,4]triazolo[1,5-a]pyridin-8-yl]-3,6-dihydro-2H-pyridin-1-yl]butan-1-one] it is 0.0083 µM.
Regarding `CC1CN(C2CCN(C(=O)c3ccc(Nc4nc5c(C6=CCN(C(=O)CCC(F)(F)F)CC6)cccn5n4)cc3)CC2)CC(C)O1` (stereo not shown) [Example 2-157, 1-[4-[2-[4-[4-(2,6-dimethylmorpholin-4-yl)piperidine-1-carbonyl]anilino]-[1,2,4]triazolo[1,5-a]pyridin-8-yl]-3,6-dihydro-2H-pyridin-1-yl]-4,4,4-trifluoro-butan-1-one], the IC50 is 0.0047 µM.
Turning to `CN(C)[C@H]1CCN(C(=O)c2ccc(Nc3nc4c(C5=CCN(C(=O)CCC(F)(F)F)CC5)cccn4n3)cc2)C1` [Example 2-158, 1-[4-[2-[4-[(3S)-3-(dimethylamino)pyrrolidine-1-carbonyl]anilino]-[1,2,4]triazolo[1,5-a]pyridin-8-yl]-3,6-dihydro-2H-pyridin-1-yl]-4,4,4-trifluoro-butan-1-one], the IC50 amounted to 0.0073 µM.
As to `CN1CCN(C(=O)C2CN(C(=O)c3ccc(Nc4nc5c(C6=CCN(C(=O)CCC(F)(F)F)CC6)cccn5n4)cc3)C2)CC1` [Example 2-159, 4,4,4-trifluoro-1-[4-[2-[4-[3-(4-methylpiperazine-1-carbonyl)azetidine-1-carbonyl]anilino]-[1,2,4]triazolo[1,5-a]pyridin-8-yl]-3,6-dihydro-2H-pyridin-1-yl]butan-1-one], the IC50 amounted to 0.0351 µM.
Take `CN1CCC(N(C)C(=O)c2ccc(Nc3nc4c(C5=CCN(C(=O)C6CC6(C)C)CC5)cccn4n3)cc2)CC1` (stereo not shown) [Example 2-160, 4-[[8-[1-(2,2-dimethylcyclopropanecarbonyl)-3,6-dihydro-2H-pyridin-4-yl]-[1,2,4]triazolo[1,5-a]pyridin-2-yl]amino]-N-methyl-N-(1-methyl-4-piperidyl)benzamide]: the IC50 was found to be 0.047 µM.
As to `CN1CCC(N(C)C(=O)c2ccc(Nc3nc4c(C5=CCN(C(=O)C6C(C)(C)C6(C)C)CC5)cccn4n3)cc2)CC1` [Example 2-161, N-methyl-N-(1-methyl-4-piperidyl)-4-[[8-[1-(2,2,3,3-tetramethylcyclopropanecarbonyl)-3,6-dihydro-2H-pyridin-4-yl]-[1,2,4]triazolo[1,5-a]pyridin-2-yl]amino]benzamide], the IC50 is 0.0442 µM.
As to `CN1CCC(N(C)C(=O)c2ccc(Nc3nc4c(C5=CCN(C(=O)CC(F)(F)F)CC5)cccn4n3)cc2)CC1` [Example 2-163, N-methyl-N-(1-methyl-4-piperidyl)-4-[[8-[1-(3,3,3-trifluoropropanoyl)-3,6-dihydro-2H-pyridin-4-yl]-[1,2,4]triazolo[1,5-a]pyridin-2-yl]amino]benzamide], the half-maximal inhibitory concentration (IC50) amounted to 0.0284 µM.
As for `CCOC(=O)N1CC=C(c2cccn3nc(Nc4ccc(C(=O)N5CC(CN)C5)cc4)nc23)CC1` [Example 2-165, ethyl 4-[2-[4-[3-(aminomethyl)azetidine-1-carbonyl]anilino]-[1,2,4]triazolo[1,5-a]pyridin-8-yl]-3,6-dihydro-2H-pyridine-1-carboxylate], the IC50 was found to be 0.187 µM.
Turning to `CCOC(=O)N1CC=C(c2cccn3nc(Nc4ccc(C(=O)NCCN5CC(C)OC(C)C5)cc4)nc23)CC1` (stereo not shown) [Example 2-167, ethyl 4-[2-[4-[2-(2,6-dimethylmorpholin-4-yl)ethylcarbamoyl]anilino]-[1,2,4]triazolo[1,5-a]pyridin-8-yl]-3,6-dihydro-2H-pyridine-1-carboxylate], the concentration for half-maximal inhibition (IC50) was 0.0158 µM.
Regarding `CCOC(=O)N1CC=C(c2cccn3nc(Nc4ccc(C(=O)NC(C)c5cccc(C)n5)cc4)nc23)CC1` (stereo not shown) [Example 2-170, ethyl 4-[2-[4-[1-(6-methyl-2-pyridyl)ethylcarbamoyl]anilino]-[1,2,4]triazolo[1,5-a]pyridin-8-yl]-3,6-dihydro-2H-pyridine-1-carboxylate], the IC50 is 0.0148 µM.
With `CCOC(=O)N1CC=C(c2cccn3nc(Nc4ccc(C(=O)NCCc5ccncc5)cc4)nc23)CC1` [Example 2-172, ethyl 4-[2-[4-[2-(4-pyridyl)ethylcarbamoyl]anilino]-[1,2,4]triazolo[1,5-a]pyridin-8-yl]-3,6-dihydro-2H-pyridine-1-carboxylate] the figure was 0.012 µM; with `CCOC(=O)N1CC=C(c2cccn3nc(Nc4ccc(C(=O)N5CC6(CCN(C)CC6)C5)cc4)nc23)CC1` [Example 2-175, ethyl 4-[2-[4-(7-methyl-2,7-diazaspiro[3.5]nonane-2-carbonyl)anilino]-[1,2,4]triazolo[1,5-a]pyridin-8-yl]-3,6-dihydro-2H-pyridine-1-carboxylate], 0.0122 µM; with `CCOC(=O)N1CC=C(c2cccn3nc(Nc4ccc(C(=O)N5CC6(CCCN6C)C5)cc4)nc23)CC1` [Example 2-176, ethyl 4-[2-[4-(5-methyl-2,5-diazaspiro[3.4]octane-2-carbonyl)anilino]-[1,2,4]triazolo[1,5-a]pyridin-8-yl]-3,6-dihydro-2H-pyridine-1-carboxylate], 0.0081 µM.

What is called IC50 is the concentration that gives 50% inhibition.
